Source: US7910324B2, “Method of screening for compounds which affect the processing of EphA4 by γ-secretase” (priority 2007, dated 2011)

How the values were obtained:
[1] = system: γ-secretase cleavage of rat EphA4 with HA tag in HEK293 cells; experiment: EphA4 processing in EphA4-HA transfected 293/EBNA-1 cells, Western blot with anti-HA antibody; format: cell-based; conditions: Compound E 50 nM, one day, EphA4-HA transfected 293/EBNA-1 (HEK293) cells
Protocol: Whether or not EphA4 is a substrate for γ-secretase was evaluated using HEK293 cells expressing EphA4 with an HA tag added to its C-terminus, in the presence of a γ-secretase inhibitor. As the γ-secretase inhibitor, (2S)-2-{[(3,5-difluorophenyl)acetyl]amino}-N-[(3S)-1-methyl-2-oxo-5-phenyl-2,3-dihydro-1H-1,4-benzodiazepin-3-yl]propanamide (hereinafter, sometimes referred to as “Compound E”) (Alexis Biochemicals) was used.
293/EBNA-1 cell strain (Invitrogen) was cultured in 10% FBS (Hyclone)/DMEM (Invitrogen) under 5% CO2 at 37° C., followed by transfection thereinto of a gene encoding rat EphA4 with an HA tag added to its C-terminus with Lipofectamine 2000 (Invitrogen). After one day culture under the same conditions, Compound E (γ-secretase inhibitor, Alexis Biochemicals) was added to the medium (final concentration: 50 nM). Cells were cultured for another day under the same conditions. Then, the transfected HEK293 cells were collected with PBS (Sigma) and sonicated with a sonicator (Taitec VP-5S) to disrupt cells. Then, the quantity of protein was determined with Protein Assay Kit (BioRad). Samples (2 μg each) were taken from proteins obtained from Compound E-added cells and Compound E-not added cells, respectively, and subjected to SDS-PAGE, followed by Western blotting with an anti-HA antibody (Roche) (final concentration: 0.2 μg/ml). […]

[2] = system: γ-secretase cleavage of EphA4 in rat hippocampal neurons; experiment: EphA4 processing in primary culture of rat hippocampal neurons, Western blot with anti-EphA4 antibody; format: cell-based; conditions: Compound E 50 nM, one week
Protocol: Whether or not EphA4 is a substrate for γ-secretase was evaluated using a primary culture of rat hippocampal neurons in the presence of a γ-secretase inhibitor. As the γ-secretase inhibitor, (2S)-2-{[(3,5-difluorophenyl)acetyl]amino}-N-[(3S)-1-methyl-2-oxo-5-phenyl-2,3-dihydro-1H-1,4-benzodiazepin-3-yl]propanamide (Compound E) (Alexis Biochemicals) was used.
The hippocampus was isolated from embryonic day 18 SD rats (Charles River) and subjected to culture. Specifically, embryos were removed aseptically from pregnant rats under etherization. The brain was removed from each embryo and dipped in 20% FBS (Hyclone)/HBSS (Sigma). The hippocampus was collected from the thus obtained brain under a stereomicroscope. The collected hippocampus was treated in an enzyme solution containing 0.25% trypsin (Invitrogen) and 0.5 mg/ml DNase (Sigma) at 37° C. for 10 minutes to disperse cells. This enzyme reaction was terminated by adding 20% FBS (Hyclone)/HBSS (Sigma). Then, 2 ml of HBSS (Sigma) was added to the resultant cells. The HBSS-added cell mass was re-dispersed by gentle pipetting. The resultant neuron suspension was diluted with a medium and plated in 10 cm dishes at an initial cell density of 1.5×10^6 cells/dish. […] Then, cells were collected with PBS and subjected to quantitative determination of protein. […]

Question: What does the source list for `C[C@H](NC(=O)Cc1cc(F)cc(F)c1)C(=O)N[C@H]1N=C(c2ccccc2)c2ccccc2N(C)C1=O` [Compound E, (2S)-2-{[(3,5-difluorophenyl)acetyl]amino}-N-[(3S)-1-methyl-2-oxo-5-phenyl-2,3-dihydro-1H-1,4-benzodiazepin-3-yl]propanamide]?
Answer: accumulation of EphA4 CTF band around 50 kDa (EphA4 undegraded product) [1]: a band around 50 kDa (CTF) was accumulated specifically; accumulation of EphA4 CTF band around 50 kDa [2]: a band around 50 kDa (CTF) was accumulated specifically
